Test results from patent publication US8501946B2 (Glaxo Group Limited, priority 2009, dated 2013).

The compounds below were run against T1, human recombinant P2X7 receptors (Homo sapiens, UniProt Q99572) (assay: Ethidium Accumulation Assay 1 (HEK293 cells, ATP-induced ethidium uptake)). Details: HEK293 cells expressing human P2X7; 1 mM ATP; sometimes mean of more than one measurement; read-out: Assay 1 (antagonist pIC50 for blocking ATP responses) (converted).
T1 construct: expressed in transfected cells
T1 sequence (Q99572 1-595): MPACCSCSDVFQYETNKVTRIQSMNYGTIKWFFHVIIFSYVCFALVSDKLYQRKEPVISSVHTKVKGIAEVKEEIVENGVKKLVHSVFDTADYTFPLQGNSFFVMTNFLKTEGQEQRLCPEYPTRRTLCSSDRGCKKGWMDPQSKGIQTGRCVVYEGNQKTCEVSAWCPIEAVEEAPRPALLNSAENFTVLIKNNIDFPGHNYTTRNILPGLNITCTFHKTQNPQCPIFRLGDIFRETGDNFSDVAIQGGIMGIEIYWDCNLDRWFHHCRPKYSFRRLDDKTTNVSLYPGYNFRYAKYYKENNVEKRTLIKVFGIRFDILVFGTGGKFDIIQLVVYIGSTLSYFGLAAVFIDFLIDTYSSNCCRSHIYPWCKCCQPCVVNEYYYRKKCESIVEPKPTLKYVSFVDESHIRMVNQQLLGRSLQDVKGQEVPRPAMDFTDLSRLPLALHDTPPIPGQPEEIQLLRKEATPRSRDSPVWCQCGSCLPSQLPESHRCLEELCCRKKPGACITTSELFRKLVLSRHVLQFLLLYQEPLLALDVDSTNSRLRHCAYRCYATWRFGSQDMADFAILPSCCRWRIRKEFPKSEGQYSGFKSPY
Format: cell-based

IC50, < 100 nM:
O=C(c1ccc(F)c(C(F)(F)F)c1)N1CCn2c(nnc2-c2cnccn2)C1 [Example 108, 7-{[4-fluoro-3-(trifluoromethyl)phenyl]carbonyl}-3-(2-pyrazinyl)-5,6,7,8-tetrahydro[1,2,4]triazolo [4,3-a]pyrazine]
Cc1c(C(=O)N2CCn3c(nnc3-c3ncns3)C2)ccc(F)c1F [Example 202, 7-[(3,4-Difluoro-2-methylphenyl)carbonyl]-3-(1,2,4-thiadiazol-5-yl)-5,6,7,8-tetrahydro[1,2,4]triazolo[4,3-a]pyrazine]
O=C(c1cccc(C(F)(F)F)c1)N1CCn2c(nnc2-c2ccccn2)C1 [Example 86]
O=C(c1cccc(C(F)(F)F)c1Cl)N1CCn2c(nnc2C2CCCC2)C1 [Example 139, 7-{[2-chloro-3-(trifluoromethyl)phenyl]carbonyl}-3-cyclopentyl-5,6,7,8-tetrahydro[1,2,4]triazolo[4,3-a]pyrazine]
O=C(c1ccc(F)cc1Cl)N1CCn2c(nnc2-c2cccnc2)C1 [Example 39, 7-[(2-chloro-4-fluorophenyl)carbonyl]-3-(3-pyridinyl)-5,6,7,8-tetrahydro[1,2,4]triazolo [4,3-a]pyrazine]
O=C(c1ccc(Cl)c(F)c1Cl)N1CCn2c(nnc2-c2ccncn2)C1 [Example 112, 7-[(2,4-Dichloro-3-fluorophenyl)carbonyl]-3-(4-pyrimidinyl)-5,6,7,8-tetrahydro[1,2,4]triazolo[4,3-a]pyrazine]
O=C(c1ccccc1C(F)(F)F)N1CCn2c(nnc2-c2ccccn2)C1 [Example 122, 3-(2-pyridinyl)-7-{[2-(trifluoromethyl)phenyl]carbonyl}-5,6,7,8-tetrahydro[1,2,4]triazolo[4,3-a]pyrazine]
O=C(c1cccc(Cl)c1)N1CCn2c(nnc2-c2ccccn2)C1 [Example 80, 7-[(3-chlorophenyl)carbonyl]-3-(2-pyridinyl)-5,6,7,8-tetrahydro[1,2,4]triazolo [4,3-a]pyrazine]
O=C(c1cccc(Cl)c1Cl)N1CCn2c(Br)nnc2C1 [Example 6, 3-bromo-7-[(2,3-dichlorophenyl)carbonyl]-5,6,7,8-tetrahydro[1,2,4]triazolo [4,3-a]pyrazine]
O=C(c1cccc(Cl)c1Cl)N1CCn2c(nnc2-c2cccc(F)n2)C1 [Example 55, 7-[(2,3-dichlorophenyl)carbonyl]-3-(6-fluoro-2-pyridinyl)-5,6,7,8-tetrahydro[1,2,4]triazolo [4,3-a]pyrazine]
O=C(c1ccc(F)cc1Cl)N1CCn2c(nnc2-c2cccc(F)c2F)C1 [Example 131, 7-[(2-chloro-4-fluorophenyl)carbonyl]-3-(2,3-difluorophenyl)-5,6,7,8-tetrahydro[1,2,4]triazolo[4,3-a]pyrazine]
O=C(c1ccc(F)cc1Cl)N1CCn2c(nnc2-c2cccc3cc[nH]c23)C1 [Example 132, 7-[(2-chloro-4-fluorophenyl)carbonyl]-3-(1H-indol-7-yl)-5,6,7,8-tetrahydro[1,2,4]triazolo[4,3-a]pyrazine]
O=C(c1ccc(Cl)cc1Cl)N1CCn2c(nnc2-c2ccc(F)cn2)C1 [Example 95, 7-[(2,4-dichlorophenyl)carbonyl]-3-(5-fluoro-2-pyridinyl)-5,6,7,8-tetrahydro[1,2,4]triazolo [4,3-a]pyrazine]
COCCc1nnc2n1CCN(C(=O)c1cccc(C(F)(F)F)c1Cl)C2 [Example 137, 7-{[2-chloro-3-(trifluoromethyl)phenyl]carbonyl}-3-[2-(methyloxy)ethyl]-5,6,7,8-tetrahydro[1,2,4]triazolo[4,3-a]pyrazine]
O=C(c1ccc(Cl)cc1Cl)N1CCn2c(nnc2-c2ncccc2F)C1 [Example 93]
COc1nnc2n1CCN(C(=O)c1cccc(C(F)(F)F)c1Cl)C2 [Example 17, 7-{[2-Chloro-3-(trifluoromethyl)phenyl]carbonyl}-3-(methyloxy)-5,6,7,8-tetrahydro[1,2,4]triazolo[4,3-a]pyrazine]
O=C(c1ccccc1Cl)N1CCn2c(nnc2-c2ncccc2F)C1 [Example 121, 7-[(2-chlorophenyl)carbonyl]-3-(3-fluoro-2-pyridinyl)-5,6,7,8-tetrahydro[1,2,4]triazolo[4,3-a]pyrazine]
O=C(c1ccc(F)cc1Cl)N1CCn2c(nnc2-c2cccc(F)c2)C1 [Example 123, 7-[(2-chloro-4-fluorophenyl)carbonyl]-3-(3-fluorophenyl)-5,6,7,8-tetrahydro[1,2,4]triazolo[4,3-a]pyrazine]
Cc1ncccc1-c1nnc2n1CCN(C(=O)c1cccc(C(F)(F)F)c1Cl)C2 [Example 65, 7-{[2-chloro-3-(trifluoromethyl)phenyl]carbonyl}-3-(2-methyl-3-pyridinyl)-5,6,7,8-tetrahydro[1,2,4]triazolo [4,3-a]pyrazine]

IC50, < 10 nM:
Cc1cccc(-c2nnc3n2CCN(C(=O)c2cccc(Cl)c2Cl)C3)n1 [Example 69, 7-[(2,3-dichlorophenyl)carbonyl]-3-(6-methyl-2-pyridinyl)-5,6,7,8-tetrahydro[1,2,4]triazolo [4,3-a]pyrazine]
O=C(c1ccc(F)cc1Cl)N1CCn2c(nnc2-c2cscn2)C1 [Example 90, 7-[(2-chloro-4-fluorophenyl)carbonyl]-3-(1,3-thiazol-4-yl)-5,6,7,8-tetrahydro[1,2,4]triazolo [4,3-a]pyrazine]
O=C(c1ccc(F)c(Cl)c1Cl)N1CCn2c(nnc2-c2cnccn2)C1 [Example 113, 7-[(2,3-Dichloro-4-fluorophenyl)carbonyl]-3-(2-pyrazinyl)-5,6,7,8-tetrahydro[1,2,4]triazolo[4,3-a]pyrazine]
O=C(c1ccc(Cl)cc1Cl)N1CCn2c(nnc2-c2ccccn2)C1 [Example 76, 7-[(2,4-dichlorophenyl)carbonyl]-3-(2-pyridinyl)-5,6,7,8-tetrahydro[1,2,4]triazolo [4,3-a]pyrazine]
Cc1cccnc1-c1nnc2n1CCN(C(=O)c1cccc(C(F)(F)F)c1Cl)C2 [Example 28, 7-{[2-chloro-3-(trifluoromethyl)phenyl]carbonyl}-3-(3-methyl-2-pyridinyl)-5,6,7,8-tetrahydro[1,2,4]triazolo [4,3-a]pyrazine]
O=C(c1cccc(C(F)(F)F)c1Cl)N1CCn2c(nnc2-c2ccccc2)C1 [Example 13, 7-{[2-Chloro-3-(trifluoromethyl)phenyl]carbonyl}-3-phenyl-5,6,7,8-tetrahydro[1,2,4]triazolo[4,3-a]pyrazine]
O=C(c1cccc(Cl)c1Cl)N1CCn2c(nnc2-c2ccccc2)C1 [Example 70, 7-[(2,3-dichlorophenyl)carbonyl]-3-phenyl-5,6,7,8-tetrahydro[1,2,4]triazolo [4,3-a]pyrazine]
O=C(c1cccc(Cl)c1Cl)N1CCn2c(nnc2-c2cscn2)C1 [Example 67, 7-[(2,3-dichlorophenyl)carbonyl]-3-(1,3-thiazol-4-yl)-5,6,7,8-tetrahydro[1,2,4]triazolo[4,3-a]pyrazine]
O=C(c1ccc(Cl)cc1F)N1CCn2c(nnc2-c2cnccn2)C1 [Example 106, 7-[(4-chloro-2-fluorophenyl)carbonyl]-3-(2-pyrazinyl)-5,6,7,8-tetrahydro[1,2,4]triazolo [4,3-a]pyrazine]
O=C(c1ccc(Cl)cc1Cl)N1CCn2c(nnc2-c2cscn2)C1 [Example 97, 7-[(2,4-dichlorophenyl)carbonyl]-3-(1,3-thiazol-4-yl)-5,6,7,8-tetrahydro[1,2,4]triazolo [4,3-a]pyrazine]

IC50, < 501 nM:
O=C(c1c(F)cccc1Cl)N1CCn2c(nnc2-c2ccccn2)C1 [Example 79, 7-[(2-chloro-6-fluorophenyl)carbonyl]-3-(2-pyridinyl)-5,6,7,8-tetrahydro[1,2,4]triazolo [4,3-a]pyrazine]
Cn1ccnc1-c1nnc2n1CCN(C(=O)c1ccc(F)cc1Cl)C2 [Example 140, 7-[(2-chloro-4-fluorophenyl)carbonyl]-3-(1-methyl-1H-imidazol-2-yl)-5,6,7,8-tetrahydro[1,2,4]triazolo[4,3-a]pyrazine]
Cc1ccc(C(=O)N2CCn3c(nnc3-c3cnccn3)C2)c(C)c1 [Example 143, 7-[(2,4-dimethylphenyl)carbonyl]-3-(2-pyrazinyl)-5,6,7,8-tetrahydro[1,2,4]triazolo[4,3-a]pyrazine]
O=C(c1ccc(F)cc1Cl)N1CCn2c(nnc2-c2cccc(F)n2)C1 [Example 41, 7-[(2-chloro-4-fluorophenyl)carbonyl]-3-(6-fluoro-2-pyridinyl)-5,6,7,8-tetrahydro[1,2,4]triazolo [4,3-a]pyrazine]
CNc1nnc2n1CCN(C(=O)c1cccc(C(F)(F)F)c1Cl)C2 [Example 21, 7-{[2-chloro-3-(trifluoromethyl)phenyl]carbonyl}-N-methyl-5,6,7,8-tetrahydro[1,2,4]triazolo [4,3-a]pyrazine-3-amine]
